Like-named read-outs stand apart in the source and are kept apart here.
Experiments:
Type in all cases: cell-based, human
[1] = system: HT 29 (Colon adenocarcinoma); assay: In vitro cytotoxicity, microculture tetrazolium (MTT) assay, HT 29; conditions: read-out: IC50
Procedure: (§1) In Vitro Cytotoxicity--Microculture Tetrazolium Assay
(§2) The microculture tetrazolium assay was used to test in vitro cytotoxicity. This assay is described in Plumb, J. A. et al., 1989 Cancer Research 49, 4435-4440, which is herein incorporated by reference. The cytotoxicity of compounds towards tumor cells is measured in vitro using the assay. This assay method is based upon the ability of live, but not dead cells to reduce the yellow water soluble dye 3-(4;5-dimethylthiazol-2-yl)-2,5-diphenyltetrazolium bromide (MTT) to its water insoluble purple formazan product.
(§3) Human Tumor Cell lines, used were:
HT 29 (Colon adenocarcinoma) ATCC catalog #HTB-38.
(§4) The cells were maintained in exponential growth in culture in minimal essential media (MEM) supplemented with non-essential amino acids, and containing 15% (v/v) fetal bovine serum, 5 mM L-glutamine, 1 mM sodium pyruvate, and 0.1 U/ml insulin. All cell lines were grown at 37° C. in an atmosphere of 5% CO2 in air.
(§5) Test compounds: 20 mM in DMSO and diluted to a final concentration of 200 μM in culture medium before use.
(§6) The following is the generic description of the assay method. It should be noted that although the conditions described work well with the cells listed above, the initial plating density and the MTT concentration used should be verified for each new cell line used to test compounds.
(§7) For each assay, doxorubicin is included as an inter-assay standard. This allows us to monitor the behaviour of the assay in general, and in particular, to check that the SKVLB line has maintained its resistant phenotype.
(§8) The plate layout is done in the following manner: The assays are carried out in 96-well (8 well×12 well) microtiter plates. Serial dilutions of the compound are tested along the length of the plate. A 1:3 serial dilution of compound in culture medium covers a concentration range from 100 μM to 1.7 nM. Each concentration of compound is tested in quadruplet, allowing two compounds to be tested per plate. Wells containing no cells (blank) and cells with no test compound (control) are included on each plate.
(§9) Cells are plated out in 100 μl of culture medium in the microtiter plates at a density of around 1,500-4,000 cells per well. The plates are incubated overnight to allow the cells to become adherent after which the test compound is added (100 μl of appropriate dilution per well). The cells are incubated with test compound at 37° C. for 48 h after which the compound is replaced with fresh medium. After a further 48 h incubation at 37° C., 50 μl of MTT solution (2 mg/ml) is added to each well. The plates are incubated in the dark for 4 h at 37° C. after which the medium is removed. The MTT formazan product is extracted from the cells by the addition of 200 μl DMSO followed by 50 μl of Sorensen's buffer. The plates are shaken briefly and the absorbance at 570 nm is read using a Molecular Devices UV max plate reader. Curves are fit to the MTT assay data using a four parameter logistic equation, and the data are normalized to fit a 0% to 100% survival scale.

[2] = system: T47D (Ductal carcinoma of breast); assay: In vitro cytotoxicity, microculture tetrazolium (MTT) assay, T47D; conditions: read-out: IC50
Procedure: as §1, §2, §3
T47D (Ductal carcinoma of breast)--ATCC catalog #HTB-133.
as §4, §5, §6, §7, §8, §9

[3] = system: SKVLB (Ovarian; multidrug resistant); assay: In vitro cytotoxicity, microculture tetrazolium (MTT) assay, SKVLB; conditions: for IC50: SKVLB, multidrug resistant, read-out: IC50; for VLB/OV3: ratio SKVLB / SKOV3
In short: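 Multidrug-resistant ovarian SKVLB cells exposed 48 h at 37 °C to 1:3 serial dilutions (100 μM–1.7 nM), then 48 h in fresh medium. MTT reduction read at 570 nm after DMSO extraction; four-parameter logistic fit normalized to 0–100% survival.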

[4] = system: SKOV3 (Ovarian adenocarcinoma); assay: In vitro cytotoxicity, microculture tetrazolium (MTT) assay, SKOV3; conditions: read-out: IC50
Procedure: as §1, §2, §3
SKOV3 (Ovarian adenocarcinoma)--provided by Dr. V. Ling,
as §4, §5, §6, §7, §8, §9

Lox (Melanoma) = assay: In vitro cytotoxicity, microculture tetrazolium (MTT) assay, Lox; conditions: read-out: IC50
Procedure: as §1, §2, §3
Lox (Melanoma)--Southern Research Institute.
as §4, §5, §6, §7, §8, §9

Row | Structure (SMILES) | IC50 ([1]; HT29) [nM] | IC50 [2] [nM] | IC50 [3] [nM] | VLB/OV3 [3] | IC50 ([4]; SKOV3) [nM] | IC50 (Lox (Melanoma)) [nM] | IC50 ([1]; Homo sapiens, HT-29, HT29) [nM] | IC50 ([2]; Homo sapiens) [nM] | IC50 ([3]; Homo sapiens) [nM] | IC50 ([4]; Homo sapiens, SK-OV-3, SKOV3) [nM] | IC50 (Lox (Melanoma); Homo sapiens) [nM]
1 | CCC1CC2=C(C(=O)c3ccccc3C2=O)C(OC2CC(OC(C)=O)C(OC(C)=O)C(C)O2)O1 (mixture of isomers) [BCH1607, (1'S,1S,3S) and (1'S,1R,3R)-5,10-dioxo-3-ethyl-1-(2',3',4',6'-tetradeoxy-3',4'-diacetoxy-L-lyxohexo-pyranose)-3,4,5,10-tetrahydro-1H-naphtho [2,3-C] pyran] | 21600 | 14700 | 19800 | 2.73 | 7260 | 8970 | – | – | – | – | –
2 | C=CC[C@@H]1CC2=C(C(=O)c3ccccc3C2=O)[C@@H](O[C@H]2C[C@H](NC(=O)C(F)(F)F)[C@H](O)[C@H](C)O2)O1 (mixture of isomers) [BCH2031, (1'S,1S,3S) and (1'S,1-R,3-R)-3-([2',3',6'-trideoxy-3'-trifluoroacetamido-4'-hydroxy-L-lyhohexopyranose]-5,10-dioxo-3,4,5,10-tetrahydronaphtho-[2,3-c]-pyran-3-yl)-propene] | – | – | – | 3 | – | – | 8500 | 16000 | 18000 | 6000 | 2800
3 | CC(=O)OC1C(C)OC(OC2OC(C(C)=O)CC3=C2C(=O)c2ccccc2C3=O)C(I)C1OC(C)=O (mixture of isomers) [BCH2065, (1'S,1R,1S) and (1'S,1S,3R)-methyl-(1-[2',6'-dideoxy-3',4'-diacetoxy-2'-iodo-L-arabino-hexopyranose]-5,10-dioxo-3,4,5,10-tetrahydronaphtho-[2,3-c]-pyran-3-yl) ketone] | 3420 | 2200 | 6100 | 4 | 1540 | 1400 | – | – | – | – | –
4 | CC(=O)C1CC2=C(C(=O)c3ccccc3C2=O)C(OC[C@@H]2CCCN2C(=O)OC(C)(C)C)O1 (mixture of isomers) [BCH2067, (1S,2'S,3R) and (1R,2'S,3S)-methyl-(1-[O-N-BOC-prolinol]-5,10-dioxo-3,4,5,10-tetrahydro-1H-naphtho [2,3-C]pyran-3-yl) ketone] | 323 | 540 | 2240 | 2 | 1200 | 1100 | – | – | – | – | –
5 | CC(=O)[C@@H]1CC2=C(C(=O)c3ccccc3C2=O)[C@H](OC2CCC(NC(=O)N(CCCl)N=O)CC2)O1 (mixture of isomers) [BCH2114, (1R,3S) and (1S,3R)-3-aceto-5,10-dioxo-1 (4-chloroethylnitrosoureido cyclohexyl-oxy)-3,4,5,10-tetrahydro-1H-naphtho-(2,3-c)-pyran] | 257 | 655 | 2040 | 4.32 | 472 | 373 | – | – | – | – | –
6 | CC(=O)C1CC2=C(C(=O)c3ccccc3C2=O)C(O[C@H]2C[C@H](O)[C@H](O)[C@H](C)O2)O1 (mixture of isomers) [BCH2117, (1'S,1S,3R) and (1'S,1R,3S)-methyl-(1-[dideoxy-2',6'-dihydroxy-3',4'-L-lyxohexopyranose]-5,10-dioxo-3,4,5,10-tetrahydronaphtho-[2,3-c]-pyran-3-yl) ketone] | 30 | 37.4 | 332 | 35.13 | 9.5 | 73 | – | – | – | – | –
7 | C=CCC1CC2=C(C(=O)c3ccccc3C2=O)C(OC2CC(NC(=O)C(F)(F)F)C(O)C(C)O2)O1 (stereo not drawn) [BCH1648] | 309 | 360 | 315 | 6.07 | 51.9 | 138 | – | – | – | – | –
8 | C=CC[C@H]1CC2=C(C(=O)c3ccccc3C2=O)[C@@H](OC2C[C@H](NC(=O)C(F)(F)F)[C@H](O)[C@H](C)O2)O1 (stereo partly drawn) [BCH1649, (1'-S,1-R,3-S)-3-([2',3',6'-trideoxy-3'-trifluoroacetamido-4'-hydroxy-L-lyhohexopyranose]-5,10-dioxo-3,4,5,10-tetrahydronaphtho-[2,3-c]-pyran-3-yl)-propene] | 331 | 380 | 459 | 4.17 | 110 | 217 | – | – | – | – | –
9 | CC(NC(=O)C(F)(F)F)[C@H]1CC2=C(C(=O)c3ccccc3C2=O)[C@H](O[C@H]2C[C@H](O)[C@H](O)[C@H](C)O2)O1 (stereo partly drawn) [BCH2018, (1'S,1S,3R)-3-(trifluoroacetamidoethyl)-5,10-dioxo-1-(2',3',6'-trideoxy-3',4'-dihydroxy-L-lyxohexopyranose)-3,4,5,10-tetrahydro-1H-naphtho-[2,3-c]-pyran] | – | – | – | 5.69 | – | – | 14200 | 8560 | 17700 | 3110 | 2380
10 | CC(=O)[C@@H]1CC2=C(C(=O)c3ccccc3C2=O)[C@@H](O[C@@H]2O[C@H](CO)[C@@H](O)[C@H](O)[C@H]2NC(=O)N(CCCl)N=O)O1 [BCH2038, (1'R,1R,3S)-3-aceto-5,10-dioxo-1-(2-deoxy-2-chloroethyl-nitrosoureido-D-glucopyranose)-3,4,5,10-tetrahydro-1H-naphtho-[2,3-C] pyran] | 2000 | 2000 | 3500 | 4.16 | 832 | 173 | – | – | – | – | –
11 | CC(=O)C1CC2=C(C(=O)c3ccccc3C2=O)C(OC2CC(NC(=O)C(F)(F)F)C(NC(=O)C(F)(F)F)C(C)O2)O1 [BCH2102, (1R,3S,1'S) and (1S,3R,1'S)-Methyl-(1-[2',3',4',6'-tetradeoxy-3',4'-bis-trifluoroacetamido-L-arabinohexopyranose]-5,10-dioxo-3,4,5,10-tetrahydronaphthaleno-[2,3-c]pyran-3-yl) ketone] | 150 | 300 | 723 | 5.65 | 130 | 186 | – | – | – | – | –
12 | CC(=O)C1CC2=C(C(=O)c3ccccc3C2=O)C(OC2CC(NC(=O)C(F)(F)F)C(NC(=O)C(F)(F)F)C(C)O2)O1 [BCH2104, (1R,3S,1'S) and (1S,3R,1'S)-Methyl-(1-[2',3',4',6'-tetradeoxy-3',4'-bis-trifluoroacetamido-L-arabinohexopyranose]-5,10-dioxo-3,4,5,10-tetrahydronaphthaleno-[2,3-c]pyran-3-yl) ketone] | 171 | 613 | 1100 | 5.05 | 210 | 240 | – | – | – | – | –
13 | CC(=O)[C@H]1CC2=C(C(=O)c3ccccc3C2=O)[C@H](O[C@H]2C[C@H](NC(=O)C(F)(F)F)[C@H](OC(=O)CBr)[C@H](C)O2)O1 [BCH2105, (1'-S,1-S,3-R)-methyl-(1-[2',3',4',6' tetradeoxy-3'-trifluoroacetamido-4'-O-(2-bromo-acetyl)-L-lyxopyranose]-5,10-dioxo-3,4,5,10 tetrahydronaphtho-[2,3-c]pyran-3-yl) ketone] | 6.9 | 19 | 370 | 123 | 3 | 25 | – | – | – | – | –
14 | CC(=NO)[C@@H]1CC2=C(C(=O)c3ccccc3C2=O)[C@@H](O[C@H]2C[C@H](NC(=O)C(F)(F)F)[C@H](O)[C@H](C)O2)O1 [BCH2115, (1'S,1R,3S)-3 (oximoethyl)-5,10-dioxo-1 (2,3,6-trideoxy-3-trifluoroacetamido-L-lyxohexopyranose)-3,4,5,10-tetrahydro-1H-naphtho-(2,3-c)-pyran] | – | – | – | > 50 | – | – | 5600 | 5300 | > 100000 | 2300 | 4000

— patent publication US5736523A, “Antineoplastic heteronapthoquinones” (Biochem Pharma Inc., priority 1995, dated 1998)
